Reference: patent US20210260142A1, “COMPOSITIONS BASED ON DIETARY FIBERS AND ESSENTIAL OILS” (Ralco Nutrition, Inc., priority 2020, published 2021)

Key:
Eimeria maxima = assay: Anticoccidial efficacy battery-cage study, E. maxima lesions and oocysts
Eimeria tenella = assay: Anticoccidial efficacy battery-cage study, E. tenella lesions and oocysts
Eimeria acervulina = assay: Anticoccidial efficacy battery-cage study, E. acervulina lesions and oocysts
[1] = 3-Oil screening trial, 35 days, cocci stress; assay type: in vivo, Cobb 500 cockerels; settings: product in feed
Excerpt: 640 1-day-old Cobb 500 cockerels were wing banded, weighed and randomly assigned to pens on the day of delivery. Each pen was 3 feet wide by 2 feet long by 2 feet tall holding 10 birds each; density was 0.6 sq. ft. per bird. The pens were contained within two battery cages in a single barn, each with battery cage having 4 levels and 8 pens per level for a total of 32 pens per battery. The experimental period was 35 days divided into three (3) feeding stages, starter, grower and finisher. Bird weight, average daily gain (ADG), average daily feed intake (ADFI), feed to gain (FG) and Coccidiosis oocyte counts were determined at each period. This study was performed with a large number of treatments in order to screen a number of possible treatments for further future investigations. […]

[2] = Day 20, Johnson and Reid 1970 scoring, five birds per cage

SMILES | Lesion Scores Eimeria maxima (Eimeria maxima; [2]) [days] | Oocysts/Gram Eimeria maxima (Eimeria maxima; feces Day 19 to Day 20) [bc Oocysts/Gram] | Lesion Scores Eimeria tenella (Eimeria tenella; [2]) [b] | Oocysts/Gram Eimeria tenella (Eimeria tenella; feces Day 19 to Day 20) [bc Oocysts/Gram] | Lesion Scores Eimeria acervulina (Eimeria acervulina; [2]) [days] | Oocysts/Gram Eimeria acervulina (Eimeria acervulina; feces Day 19 to Day 20) [cd Oocysts/Gram] | Average bird weights at thirty-five (35) days [1] [grams]
CC[C@@H](C(=O)[C@@H](C)[C@@H](O)[C@H](C)[C@@H]1O[C@@H]([C@@H](CC)C(=O)O)CC[C@@H]1C)[C@H]1O[C@]2(C=C[C@@H](O)[C@]3(CC[C@@](C)([C@H]4CC[C@](O)(CC)[C@H](C)O4)O3)O2)[C@H](C)C[C@@H]1C [Salinomycin] | 0.7 | 212 | 0.9 | 1843 | 0.8 | 18403 | –
O=CC=Cc1ccccc1 [cinnamaldehyde] | – | – | – | – | – | – | 2180.2
